Measured values taken from patent US10011596B2, “2-amino-3-fluoro-3-(fluoromethyl)-6-methyl-6-phenyl-3,4,5,6-tetrahydropyridines as BACE1 inhibitors” (H. Lundbeck A/S, priority 2015, dated 2018).
Where two headings read alike, the source gives them in different places.

Columns and labels:
[1] = Bioanalysis of brain and plasma samples (exposure, UPLC-MS/MS); type: in vivo, rat; conditions: male, Sprague Dawley, po, 3 hours post dose; for Kp at 3 h: brain/plasma, rat, read-out: Brain/Plasma ratio
Method: Young adult Male Sprague Dawley rats of approximately 250 g weight were purchased from Charles River and received 0-30 mg/kg of vehicle (10% HP betaCD+1M MeSO4, pH 2.5) or test compounds (dissolved in vehicle) only by oral gavage (p.o). The compounds are dosed at a volume of 5 ml/kg. Cohorts of 5-10 animals were established for each treatment condition.
At T=180 minutes after initial dosing the animals were stunned and decapitated with a guillotine. Trunk-blood was sampled in EDTA coated tubes after decapitation of the animal. The blood was centrifuged at 2200 G at 4° C. for 15 minutes and the plasma was collected and frozen at −80° C. The blood was aliquoted for Aβ ELISA and pharmacokinetic analysis. Immediately following sacrifice, the brain was extracted and split into 2 halves. The right hemibrains were snap frozen on dry ice and stored at −80° C. The left half was dissected; with the front forebrain taken for Aβ ELISA and the remainder used for DMPK analysis. These samples were also snap frozen on dry ice and stored at −80° C. until use for analysis.
TC (test compound) was determined in plasma and brain homogenate using UltraPerformance LC® (U PLC®) chromatography followed by tandem-MS (MS/MS) detection.
Brain homogenate was prepared by homogenizing the brain 1:4 (v/v) with water:2-propanol:DMSO (50:30:20 v/v/v) followed by centrifugation and collection of the supernatant. Calibration standards and QC samples were prepared using a Hamilton robot. 150 μL of ISTD in acetonitrile (1 ng/mL ISTD) was added to 25 μL of calibration standards, QC samples and test samples (plasma and brain homogenate) using a Biomek robot. After centrifugation (6200 g, 4° C., 20 min) 100 μL supernatant from each sample was transferred to a new plate and mixed with 100 μL water with 0.1% formic acid using a Biomek robot (method file InVivo transfer). After a quick centrifugation (6200 g, 4° C., 5 min) the samples were placed in the auto-sampler.
MS/MS detection was done with an Applied Biosystems Sciex API 4000 instrument in positive-ion electrospray ionisation mode. TC and ISDD were detected at a parent>daughter mass to charge ratio (m/z). Nitrogen was used for the nebulizer and collision gases. The peak area correlated linearly with the plasma and brain concentration of the analytes in the range of 1.00-1000 ng/mL plasma and 5.00-5000 ng/g brain (corrected for dilution). If the plasma/brain sample drug concentration was above 1000 ng/mL or 5000 ng/g, the sample was diluted appropriately in blank plasma/blank brain homogenate before analysis.
Compound 1 was administered at doses of 10 mg/kg p.o. and 30 mg/kg p.o. and brain and plasma samples were collected at 3 hours post dose and the following exposures were measured as described above.

[2] = tested on: P-gp (MDR1); assay: MDCK-MDR1 assay (permeability, efflux ratio); type: in vitro ADME; conditions: dog
Method: The permeability of the test compounds was assessed in MDCK-MDR1 cells that were cultured to confluency (4-6 days) in a 96 transwell plate. Test compounds were diluted with the transport buffer (HBSS+1% BSA) to a concentration of 0.5 μM and applied to the apical or basolateral side of the cell monolayer. Permeation of the test compounds from A to B direction or B to A direction was determined in triplicate over a 60-minute incubation time at 37° C. and 5% CO2 with a relative humidity of 95%. Test compounds were quantified by LC-MS/MS analysis based on the peaks area ratios of analyte/IS in both the receiver and donor wells of the transwell plate.
The apparent permeability coefficient Papp (cm/s) was calculated using the equation: Papp=(dCr/dt)×Vr/(A×C0)
Where dCr/dt is the cumulative concentration of compound in the receiver chamber as a function of time (μM/s); Vr is the solution volume in the receiver chamber (0.05 mL on the apical side; 0.25 mL on the basolateral side); A is the surface area for the transport, i.e. 0.0804 cm^2 for the area of the monolayer; C0 is the initial concentration in the donor chamber (μM).

[3] = target: T1, human BACE1 (Homo sapiens, UniProt P56817); assay: BACE1 efficacy assay (FRET-based, commercial BACE1 kit); type: biochemical; parameters: purchased Life Technologies P2985; conditions: test compound at 10 μM
T1 sequence (P56817 46-501): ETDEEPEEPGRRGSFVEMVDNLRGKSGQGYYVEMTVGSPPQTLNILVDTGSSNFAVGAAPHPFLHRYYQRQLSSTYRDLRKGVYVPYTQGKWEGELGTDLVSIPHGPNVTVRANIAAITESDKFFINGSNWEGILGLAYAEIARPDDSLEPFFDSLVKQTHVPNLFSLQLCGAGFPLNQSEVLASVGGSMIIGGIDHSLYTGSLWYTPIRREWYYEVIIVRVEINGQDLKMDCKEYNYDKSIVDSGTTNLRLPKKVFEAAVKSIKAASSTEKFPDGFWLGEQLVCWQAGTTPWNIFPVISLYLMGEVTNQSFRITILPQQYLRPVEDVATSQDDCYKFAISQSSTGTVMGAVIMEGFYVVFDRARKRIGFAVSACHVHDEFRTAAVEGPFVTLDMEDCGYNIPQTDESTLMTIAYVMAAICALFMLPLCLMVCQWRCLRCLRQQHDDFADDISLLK
Method: The efficacy assay was performed as a FRET-based assay using a commercially available BACE1 kit (Life Technologies, P2985). 2 μl test compound at 10 μM (final concentration) and 15 μl BACE1 enzyme from the kit (final concentration 3 nM) were preincubated for 15 minutes at room temperature before addition of 15 μl of substrate from the kit (250 nM final concentration) and incubated for additional 90 minutes at room temperature. The assay plate was subsequently read in a Pherastar (Ex540/Em590).

[4] = target: T1, human BACE1; assay: BACE1 binding assay (SPA-based, radioligand displacement); parameters: biotin (biotinylated form); made in house; host or cells: Freestyle HEK293 cells; conditions: pH 4.5, 10 nM radioligand, 6 nM human BACE1, read-out: BACE1 binding affinity
Method: The binding assay was performed as SPA-based assay using a biotinylated form of human BACE1 recombinantly expressed and subsequently purified from Freestyle HEK293 cells. The binding assay was run in a 50 mM sodium acetate buffer, pH 4.5 containing 50 mM NaCl and 0.03% Tween-20 in white clear bottom 384 plates (Corning #3653). 10 nM (final concentration) radioligand ([^3H]-N-((1S,2R)-1-benzyl-3-cyclopropylamino-2-hydroxy-propyl)-5-(methanesulfonyl-methyl-amino)-N-((R)-1-phenyl-ethyl)-isophthalamide) (TRQ11569 purchased from GE Healthcare) was mixed with test compound at a given concentration, 6 nM (final concentration) human BACE1 and 25 μg Streptavidin coated PVT core SPA beads (RPNQ0007, GE Healthcare Life Sciences) in a total volume of 40 μl. Several concentrations of each test compound were tested in the assay for IC50 determination. The plates were incubated for one hour at room temperature and counted in a WaIlac Trilux counter. […] For each test compound, a IC50 value (the concentration mediating 50% inhibition of the specific binding of the radioligand) was determined from concentration-response curve and used to calculate the Ki from the equation Ki=IC50/(1+L/Kd), where L and Kd are the final concentration of the radioligand used in the assay and the dissociation constant of the radioligand, respectively. The Kd of the radioligand was determined from saturation binding experiments.

[5] = rat brain, 10 mg/kg p.o., read-out: Exp (ng/g), brain
[6] = rat brain, 30 mg/kg p.o., read-out: Exp (ng/g), brain
[7] = rat plasma, 10 mg/kg p.o., read-out: Exp (ng/g), plasma
[8] = rat plasma, 30 mg/kg p.o., read-out: Exp (ng/g), plasma

Row | Compound | Kp at 3 h ([1]; 10 mg/kg p.o.) | Kp at 3 h ([1]; 30 mg/kg p.o.) | concentration at 3 h [1, 5] | concentration at 3 h [1, 6] | concentration at 3 h [1, 7] | concentration at 3 h [1, 8] | efflux ratio at 60 min, 0.5 µM [2] | inhibition at 10 µM [3] | Ki [4]
1 | COc1cnc(C(=O)Nc2ccc(F)c([C@]3(C)CC[C@@](F)(CF)C(N)=N3)c2)cn1 [Compound 5, N-(3-((2S,5S)-6-Amino-5-fluoro-5-(fluoromethyl)-2-methyl-2,3,4,5-tetrahydropyridin-2-yl)-4-fluorophenyl)-5-methoxypyrazine-2-carboxamide] | 1.95 | 2.74 | 536 ng/g | 1610 ng/g | 275 ng/g | 587 ng/g | 1.07 | 103% | 0.024 µM
2 | C[C@@]1(c2cc(NC(=O)c3cnc(C(F)F)cn3)ccc2F)CC[C@@](F)(CF)C(N)=N1 [Compound 11] | 2.1 | 2.3 | 416 ng/g | 1350 ng/g | 195 ng/g | 590 ng/g | 1.89 | 103% | 0.055 µM
3 | C[C@@]1(c2cc(NC(=O)c3ccc(F)cn3)ccc2F)CC[C@@](F)(CF)C(N)=N1 [Compound 13, N-(3-((2S,5S)-6-Amino-5-fluoro-5-(fluoromethyl)-2-methyl-2,3,4,5-tetrahydropyridin-2-yl)-4-fluorophenyl)-5-fluoropicolinamide] | 1.25 | 1.59 | 588 ng/g | 1590 ng/g | 469 ng/g | 1000 ng/g | 1.5 | 100% | 0.04 µM
